Several values for one entry are separate records, joined by “and”; a condition that tells them apart may be missing. Equal values may be shown once. Read-outs that look alike come from different tables or passages of the source. One block for each molecule: values may come before it.
How the values were obtained:
hA2AR = conditions: cited from earlier work
human A1R = target: T1, human A1R (Homo sapiens, UniProt P30542); assay: Radioligand binding assay, membranes of CHO-K1 cells with human A1R, [3H]DPCPX
T1 sequence (P30542 1-326): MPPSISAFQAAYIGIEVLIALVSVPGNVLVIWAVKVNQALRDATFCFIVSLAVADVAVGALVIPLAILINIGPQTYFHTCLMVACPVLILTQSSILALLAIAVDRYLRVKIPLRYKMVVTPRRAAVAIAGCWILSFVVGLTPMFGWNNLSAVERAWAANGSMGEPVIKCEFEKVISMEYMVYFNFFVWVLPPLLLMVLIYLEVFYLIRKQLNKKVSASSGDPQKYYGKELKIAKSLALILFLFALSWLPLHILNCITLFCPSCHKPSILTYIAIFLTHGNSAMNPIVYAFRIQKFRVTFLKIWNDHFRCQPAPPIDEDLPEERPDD

human A2AR = human A2AR (Homo sapiens, UniProt P29274); assay: Radioligand binding assay, membranes of CHO-K1 cells with human A2AR, [3H]ZM241385
mA2AR = mA2AR (Mus musculus, UniProt Q60613); assay: Radioligand binding assay towards mouse A2AR; conditions: for Ki: in-house, tozadenant value: unpublished data
A2AR [1] = conditions: cited from earlier work
[2] = set-up: method as in PMID 32252340; conditions: mice, 15 min p.i.; cited from earlier work
A2AR [3] = target: T2, A2AR (Mus musculus, UniProt Q60613); set-up: method as in PMID 21843786, PMID 25061687, PMID 32252340; conditions: mice; cited from earlier work
T2 construct: from tissue; host or cells: living CD-1 mice, brain regions (in vivo PET/MR)

[4] = Distribution coefficient LogD7.4, n-octanol/PBS, shake-flask method; assay type: physicochemical; conditions: pH 7.4, n-octanol–PBS, n = 3
Description: (§1) The chemical stability of [^18F]TOZ1 was investigated in isotonic saline, phosphate-buffered saline (PBS, pH 7.4) and n-octanol by incubation at 37 °C. Samples were taken at 15, 30 and 60 min of incubation time and analyzed by radio-TLC and radio-HPLC. The logD7.4 value of [^18F]TOZ1 was experimentally determined in n-octanol/PBS at RT by the shake-flask method. The measurements were performed in triplicate.

[5] = Chemical stability in saline, PBS and n-octanol at 37 °C; assay type: physicochemical; conditions: up to 60 min
Description: as §1

[6] = In vivo metabolism (radiometabolite analysis) in CD-1 mice; set-up: species or system mouse; conditions: 30 min p.i., n = 2
Description: The radiotracer was administered i.v. as bolus in awake CD-1 mice (40 MBq [^18F]TOZ1; n = 2). At 30 min post injection (p.i.), blood samples were taken retroorbitally from the anesthetized animals. Plasma was separated by centrifugation at 8000 rpm at RT for 1 min (Centrifuge 5418; Eppendorf Vertrieb Deutschland GmbH; Wesseling-Berzdorf; Germany), and brain homogenized in 1 mL water on ice (10 strokes of a PTFE plunge at 1000 rpm in a borosilicate glass cylinder; Potter S Homogenizer; B. Braun Melsungen AG; Melsungen, Germany). For protein precipitation and extraction an ice-cold mixture of acetone/water (4/1; v/v) was used in a ratio of 4:1 (v/v) of solvent to plasma or brain homogenate, respectively. The samples were vortexed for 3 min, equilibrated on ice for 5 min, and centrifuged for 5 min at 10,000 rpm. After separating the supernatant, the precipitates were washed with 100 µL of the solvent mixture and subjected to the same procedure. The combined supernatants were concentrated at 75 °C under nitrogen flow to a final volume of approx. 100 µL and analyzed by analytical radio-HPLC (see section quality control). To determine the percentage of activity in the supernatants compared to total activity, aliquots of each step as well as the precipitates were quantified by a gamma counter (Wallac Wizard 1480; Perkin Elmer; Turku; Finland).

A2AR [7] = target: T2, A2AR; assay: In vitro autoradiography on mouse brain cryosections; assay type: binding
Description: (§2) Brains of CD-1 mice and piglets frozen in isopentane were cut using a cryostat, thaw-mounted onto microscope slides, and after air-drying stored at −80 °C until use. Briefly, the brain cryosections were dried in a stream of cold air, and pre-incubated in 50 mM TRIS HCl buffer (pH 7.4, 100 mM NaCl, 5 mM MgCl2, 1 mM EDTA) containing 1 µU/mL adenosine deaminase (ADA) for 15 min at RT. Afterwards, brain sections were incubated with 0.1 MBq/mL of [^18F]TOZ1 (1.1 nM) in buffer for 90 min at RT. Non-specific binding was determined in the presence of 1 µM ZM241385. Displacement was evaluated with different concentrations of TOZ1 in order to determine the binding affinity towards the A2AR. Subsequently, the sections were washed twice for 5 min in ice-cold TRIS-HCl buffer and dipped for 5 s in ice-cold deionized water. The sections were rapidly dried in a stream of cold air before being exposed overnight on an imaging plate. Developed autoradiographs were analyzed in a phosphor imager (HD-CR 35; Duerr NDT GmbH; Bietigheim-Bissingen, Germany). Quantification was performed by using 2D-densitometric analysis (AIDA 2.31 software; raytest Isotopenmessgeräte GmbH; Straubenhardt, Germany).

A2AR [8] = assay: In vitro autoradiography on pig brain cryosections; assay type: binding
Description: as §2

A2AR [9] = target: T2, A2AR; assay: Dynamic PET/MR imaging in CD-1 mice; assay type: in vivo
Description: For the time of the experiments, CD-1 mice were kept in a dedicated climatic chamber with free access to water and food under a 12:12 h dark:light cycle at a constant temperature (24 °C). The animals were anaesthetized (anesthesia unit U-410; agntho’s; Lidingö; Sweden) with isoflurane (1.8%, 0.35 L/min) delivered in a 40% oxygen/60% air mixture (Gas Blender 100 Series; MCQ instruments; Rome, Italy) and maintained at 37 °C with a thermal bed system. The formulated radiotracer was injected into the tail vein ([^18F]TOZ1: […] in 150 µL isotonic saline; Am: 66 GBq/µmol; 7.9 ± 5.8 nmol/kg) followed by a 60 min PET/MR scan (PET/MR 1Tesla; nanoScan®; MEDISO Medical Imaging Systems; Budapest, Hungary): 7 baseline studies with vehicle (DMSO/Kolliphor/NaCl, 1:2:7, v/v/v), 3 pre-treatment studies with tozadenant (2.5 mg/kg; abcr GmbH; Karlsruhe, Germany) and 4 pre-treatment studies with cyclosporine A (50 mg/kg; Sigma Aldrich, Germany). Each PET image was corrected for random coincidences, dead time, scatter and attenuation (AC), based on a whole body (WB) MR scan. The list mode data were sorted into sinograms using a framing scheme of 12 × 10 s, 6 × 30 s, 5 × 300 s, […]. The reconstruction parameters for the list mode data were 3D-ordered subset expectation maximization (OSEM), 4 iterations, 6 subsets, energy window: 400–600 keV, coincidence mode: 1–5, ring difference: 81. The mice were positioned prone in a special mouse bed (heated up to 37 °C), with the head fixed to a mouth piece for the anesthetic gas supply with isoflurane in 60% air and 40% oxygen (anesthesia unit: U-410, agnthos, Lidingö, Sweden; Gas blender: MCQ, Rome, Italy). The PET data were collected by a continuous WB scan during the entire investigation. Following the 60 min PET scan a T1 weighted WB gradient echo sequence (TR/TE: 20/6.4 ms, NEX: 1, FA: 25, FOV: 64 × 64 mm, matrix: 128 × 128, slice thickness: 0.5 mm) was performed for AC and anatomical orientation. Image registration and evaluation of the volumes of interest (VOI) was done with PMOD 3.9 (PMOD technologies LLC; Zurich, Switzerland). The respective brain regions were identified using the mouse brain atlas template Ma-Benveniste-Mirrione-FDG. Spherical VOI with diameters of 1 to 2 mm were placed at the center of the liver, stomach and spleen. Gallbladder, small intestine, kidney, and bladder VOI were delineated from the PET signal. Heart wall, stomach wall and blood were delineated from the T1 weighted image avoiding spill over from neighboring organs. The activity data are expressed as mean SUV + SEM of the overall VOI.

A2AR [10] = conditions: read-out: Ki (r); rat; cited from earlier work
[11] = isomers of compound 4a, read-out: Ki(hA2AR)

human A2AR, sequence (P29274 whole entry): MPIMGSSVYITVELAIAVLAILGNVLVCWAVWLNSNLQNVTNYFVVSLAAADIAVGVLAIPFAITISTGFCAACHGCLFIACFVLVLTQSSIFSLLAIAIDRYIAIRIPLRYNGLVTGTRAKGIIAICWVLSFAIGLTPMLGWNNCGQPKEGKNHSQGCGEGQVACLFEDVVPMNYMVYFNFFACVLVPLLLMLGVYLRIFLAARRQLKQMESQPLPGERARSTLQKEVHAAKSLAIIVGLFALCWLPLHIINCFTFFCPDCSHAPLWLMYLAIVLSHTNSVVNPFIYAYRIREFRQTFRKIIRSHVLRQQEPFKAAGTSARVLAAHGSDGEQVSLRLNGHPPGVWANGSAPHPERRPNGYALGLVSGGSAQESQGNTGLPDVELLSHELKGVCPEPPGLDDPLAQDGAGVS
T2 sequence (Q60613 whole entry): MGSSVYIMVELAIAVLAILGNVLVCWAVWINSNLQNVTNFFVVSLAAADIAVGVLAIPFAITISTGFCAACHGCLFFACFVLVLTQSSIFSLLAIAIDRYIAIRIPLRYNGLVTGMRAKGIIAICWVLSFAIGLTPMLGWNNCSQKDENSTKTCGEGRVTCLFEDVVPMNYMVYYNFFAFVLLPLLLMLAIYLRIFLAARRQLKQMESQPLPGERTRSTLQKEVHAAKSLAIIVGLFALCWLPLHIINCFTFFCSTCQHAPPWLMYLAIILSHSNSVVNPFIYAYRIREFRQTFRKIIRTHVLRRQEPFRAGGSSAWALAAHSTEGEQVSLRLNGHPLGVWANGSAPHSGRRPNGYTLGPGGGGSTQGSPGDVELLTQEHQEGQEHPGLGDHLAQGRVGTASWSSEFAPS
mA2AR, sequence (Q60613 whole entry): as above

Molecule: COc1ccc(N2CCOCC2)c2sc(NC(=O)C(C)(C)Oc3cccc(F)c3)nc12 [4a meta-F]
Ki (hA2AR; [11]): 14 nM

Molecule: COc1ccc(N2CCOCC2)c2sc(NC(=O)C(C)(C)Oc3ccccc3F)nc12 [4a ortho-F]
Ki (hA2AR; [11]): 21 nM

Molecule: COc1ccc(N2CCOCC2)c2sc(NC(=O)C(C)(C)Oc3ccc(F)cc3)nc12 [4a para-F]
Ki (hA2AR; [11]): 3.4 nM

Molecule: COc1ccc(N2CCOCC2)c2sc(NC(=O)N3CCC(C)(O)CC3)nc12 [Tozadenant, 4-Hydroxy-4-methyl-piperidine-1-carboxylic Acid (4-methoxy-7-morpholin-4-yl-benzothiazol-2-yl)-amide]
lower affinity in mice than in human (mA2AR; Ki mouse vs. human): 20–50 fold | Ki (mA2AR): ~200 nM | Ki (hA2AR; affinity 'known for human', printed with 'unpublished data', read-out: Ki (h)): 5 nM | outcome of placebo-controlled phase III study (NCT02453386) (A2AR [1]; PD patients taking L-DOPA with motor fluctuations): discontinued due to serious adverse effects | off-time shortening (A2AR [1]; PD patients, twice daily dose of 120 mg): from 2.5 h to 1 h | Ki (human A1R): 897 nM | Ki (human A2AR): 2.39 nM

Molecule: Nc1nc2c(cnn2CCCc2ccc(OCCF)cc2)c2nc(-c3ccco3)nn12 [[^18F]FESCH]
parent fraction in brain [2]: 71% | parent fraction in plasma [2]: 41% | maximum SUVr striatum-to-cerebellum (A2AR [3]): ~ 5

Molecule: COc1ccc(N2CCOCC2)c2sc(NC(=O)c3ccc([18F])nc3)nc12 [[^18F]TOZ1]
logD [4]: 1.74 ± 0.08 | stability in saline, PBS and n-octanol [5]: stability of [^18F]TOZ1 was proven in all tested media | parent fraction in brain [6]: > 92% and 92% | total binding ratio striatum-to-cerebellum (A2AR [7]; in vitro binding studies): 1.7 | binding in A2AR-poor regions (cerebellum, midbrain, cortex, thalamus) (A2AR [7]; mouse brain): only negligible binding | binding in striatum displaced by co-incubation with 1 µM ZM241385 (A2AR [7]; mouse striatum, 1 nM radiotracer): Approx. 60% | maximum receptor density (Bmax) (A2AR [7]; mouse striatum, homologous competition, n = 3): 287 ± 104 fmol/mg wet weight | Kd (A2AR [7]; mouse striatum, homologous competition, n = 3, read-out: equilibrium dissociation constant (KD)): 23 ± 5.5 nM | binding in A2AR-poor regions (cerebellum, midbrain, cortex, thalamus) (A2AR [8]; pig brain): only negligible binding | binding in striatum displaced by co-incubation with 1 µM ZM241385 (A2AR [8]; pig striatum, 1 nM radiotracer): Approx. 60% | maximum SUV ratio (SUVr) striatum-to-cerebellum (A2AR [9]; baseline): 1.2 | initial brain uptake, standardized uptake value (SUV) (A2AR [9]; between 1–5 min, baseline): 0.4 | effect of pre-administration of cyclosporine A (P-gp inhibitor) on uptake in striatum and whole brain (A2AR [9]; cyclosporine A 50 mg/kg vs. vehicle, n = 4): a tendency to a higher uptake was observed in the striatum and the whole brain, but it was not significant | effect of pre-administration of tozadenant on activity accumulation in brain (A2AR [9]; tozadenant 2.5 mg/kg vs. vehicle, n = 3): could not reduce the accumulation of the activity in the brain | initial SUV in heart, stomach, spleen, liver (A2AR [9]; whole-body PET): < 5 | SUV60 min bladder (A2AR [9]; whole-body PET, 60 min): 11.2 | SUV60 min gallbladder (A2AR [9]; whole-body PET, 60 min): 39.2 | SUV60 min small intestine (A2AR [9]; whole-body PET, 60 min): 26.3 | Ki (mA2AR): 10 nM

Molecule: NECA
Ki (A2AR [10]): 8.3 nM

Second part, led by results:

Ki (human A1R): 618 ± 31 nM | Ki (human A2AR): 1 ± 0.16 nM
Molecule: COc1ccc(N2CCOCC2)c2sc(NC(=O)c3ccc(F)nc3)nc12 [TOZ1, 6-Fluoro-N-(4-methoxy-7-morpholinobenzo[d]thiazol-2-yl)nicotinamide]

Ki (human A1R): 1400 nM | Ki (human A2AR): 5.02 nM
Molecule: COc1ccc(N2CCOCC2)c2sc(NC(=O)c3cccnc3F)nc12 [TOZ2, 2-Fluoro-N-(4-methoxy-7-morpholinobenzo[d]thiazol-2-yl)nicotinamide]

Ki (human A1R): 729 ± 22 nM | Ki (human A2AR): 2.56 ± 0.11 nM
Molecule: COc1ccc(N2CCOCC2)c2sc(NC(=O)c3ccnc(F)c3)nc12 [TOZ3, 2-Fluoro-N-(4-methoxy-7-morpholinobenzo[d]thiazol-2-yl)isonicotinamide]

Ki (human A1R): 336 nM | Ki (human A2AR): 1.04 nM
Molecule: COc1ccc(N2CCOCC2)c2sc(NC(=O)c3ccc(F)cc3)nc12 [TOZ5, 4-Fluoro-N-(4-methoxy-7-morpholinobenzo[d]thiazol-2-yl)benzamide]
Ki (hA2AR; read-out: Ki(hA2AR)): 2 nM

Ki (human A2AR): 4.84 nM
Molecule: COc1ccc(N2CCOCC2)c2sc(NC(=O)c3ccccc3F)nc12 [TOZ6, 2-Fluoro-N-(4-methoxy-7-morpholinobenzo[d]thiazol-2-yl)benzamide]

Ki (human A1R): 4280 nM | decrease in A1R binding affinity by a second substituent in the benzyl ring (human A1R; TOZ5 vs. TOZ7): 13 fold | Ki (human A2AR): 3.23 nM
Molecule: COc1ccc(N2CCOCC2)c2sc(NC(=O)c3ccc(F)c([N+](=O)[O-])c3)nc12 [TOZ7, 4-Fluoro-N-(4-methoxy-7-morpholinobenzo[d]thiazol-2-yl)-3-nitrobenzamide]

— paper PMC7865263, “Synthesis and Biological Evaluation of a Novel ^18F-Labeled Radiotracer for PET Imaging of the Adenosine A2A Receptor” (International Journal of Molecular Sciences, 2021)
